System: XIAP mRNA
Experiment: XIAP mRNA knock-down in H460 cells (real-time RT-PCR / TaqMan)
Format: cell-based, human
Conditions: real-time PCR, 1.2 μM, 6 hours of transfection (FIG. 6)
Procedure, shortened: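 NCI-H460 cells transfected with phosphorothioate antisense oligonucleotides via Lipofectamine 2000; RNA isolated after 6 h treatment. XIAP mRNA quantified by one-step TaqMan real-time RT-PCR, comparative Ct (threshold 30× baseline SD), normalized to GAPDH and expressed relative to untreated control cells.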

GCTGAGTCTCCATATTGCC [G4 AS] (chemistry not given here)
reduction of XIAP mRNA level compared to untreated control: 55%
